Results taken from patent US8703210B1, “Adding calcium and bicarbonate to human blood” (Sang Lads, Inc., priority 2005, dated 2014).
Like-named read-outs stand apart in the source and are kept apart here.

For `O=C([O-])[O-].[Ca+2]` [Calcium carbonate, calcium carbonate], the pH (after carbonic acid (in the form of club soda) is added to the mixture) was “neutral” and the pH (calcium carbonate powder dissolved into water) was at most 9.
